Data published in patent publication US10633383B2, “Compounds for the treatment, alleviation or prevention of disorders associated with Tau aggregates” (AC Immune SA, priority 2018, dated 2020).

Columns and labels:
[1] = molecular target: T1, Tau K18 fragment (amino acids 244 to 372 of human Tau441) aggregates (Homo sapiens, UniProt P10636); experiment: Tau K18 disaggregation assay by ThT; format: biochemical; settings: 2 μM K18 aggregates, 30 minutes at RT, ThT fluorescence
T1 construct: encompassing amino acids 244 to 372 of the longest isoform (2N4R) of human Tau441; host or cells: bacteria

rTg4510 mice = experiment: Total human Tau in CSF of rTg4510 mice (AlphaLISA); format: in vivo, mouse; settings: 30 mg/kg bi-daily by gavage for 1 month, vs vehicle treated rTg4510 mice (FIG. 1)
Excerpt: In Vivo Efficacy of the Compounds of the Present Invention In Vivo Study Design for the Testing of Example 12 and Example 45
Double transgenic rTg4510 mice express the full-length human Tau carrying the P301L mutation (Tau4R0N-P301L) under the control of the tet-inducible CaMKII promoter (Ramsden et al., J. Neurosci., 2005⋅25(46):10637-10647). Single transgenic mice expressing only the tetracycline-controlled transactivator (tTA) were used as genotype controls. The study comprised 4 treatment groups (n=15 female for tTa group and n=11 female mice/group for the treatment) with the following group distribution (see Table 9). […]
Mice were deeply anesthetized by standard injectable anesthesia and transcardially perfused with cold PBS. […] Total human Tau in CSF Tau was quantified using the following antibody pairs: HT7-Acceptor beads+biotin (BT)-Tau13-donor beads. […]
After incubation of this mixture at room temperature for 1 hour, 25 μL of Streptavidin Donor beads (Perkin Elmer) at 25 μg/mL were added in the dark. Plates were analyzed after 30 minute incubation using the EnSpire Alpha instrument and EnSpire Workstation version 3.00. Data were analyzed by 1-way ANOVA followed by post-hoc comparisons and shown statistics refers to differences compared to vehicle treated rTg4510 mice.

T1 sequence (P10636 561-689): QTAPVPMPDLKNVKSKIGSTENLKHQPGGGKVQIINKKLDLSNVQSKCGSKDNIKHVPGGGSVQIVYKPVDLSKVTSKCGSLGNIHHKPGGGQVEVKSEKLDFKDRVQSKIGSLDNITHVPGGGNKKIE

EC50 [1]: < 10 µM
Compound: Fc1ccc2[nH]c3c(c2c1)CN(c1ccc2nc(N4CCOCC4)oc2c1)CC3 [Example 12]
Tau levels in CSF (rTg4510 mice): decreased Tau levels in CSF
